Data as given in patent US20250320234A1, “LONP1 INHIBITOR COMPOUNDS, USES AND METHODS” (Pretzel Therapeutics, Inc., priority 2021, published 2025).

Target: LONP1 (NM_004793.4) (Homo sapiens (Human), UniProt P36776)
Assay: LONP1 FRET-based protease activity assay with fluorogenic peptide substrate
Assay type: biochemical
Settings: LONP1 15 nM, substrate 3 μM, 1 hour at 37° C.; average of a minimum of two repeats
Method: The inhibitory activity of the compounds of the present invention against LONP1, 20S proteasome and other proteases are determined by assays known to persons of ordinary skill in the art (see, e.g., Fishovitz, J. et al. “Active-Site-Directed Chemical Tools for Profiling Mitochondrial Lon Protease” ACS Chem. Biol. 6, 781-788 (2011)).
In this Example, LONP1 (NM_004793.4) activity was measured by a FRET-based assay for protease activity using a fluorogenic peptide DabcylYRGIT(2Abu)SORQK(5-FAM) (Cambridge Research Biochemicals) as substrate. LONP1 activity is followed by an increase in fluorescence signal due to the degradation of the peptide. Inhibition of LONP1 protease activity by an inhibitor compound of the disclosure elicits a decrease in the fluorescent signal.
The assay is performed in a 384-well plate (Greiner, cat. #781076) using the following reagents and conditions: substrate (3 μM) was incubated for 1 hour at 37° C. in the presence of LONP1 (15 nM as monomer), 25 mM Tris pH 8.0, 10 mM MgCl2, 0.03 mg/mL […], 0.5 mM DTT, 0.0003% Tween-20, 10 mM NaCl, 0.06 mM ATP and 0.5 mM EGTA in a 15 μL final volume. The LONP1-containing mix (10 μL) was incubated with the test compound for 15 min at 37° C. before adding the peptide-containing mix (5 μL). Solutions were dispensed using a small cassette-Multidrop Combi (Thermo Scientific). Fluorescence was measured using a PheraStar plate reader (BMG Labtech) FI-FRET EX 485 nm Em 520 nm.
Each value is based on an average of a minimum of two repeats.

Chain of LONP1 (NM_004793.4) (P36776 68-959): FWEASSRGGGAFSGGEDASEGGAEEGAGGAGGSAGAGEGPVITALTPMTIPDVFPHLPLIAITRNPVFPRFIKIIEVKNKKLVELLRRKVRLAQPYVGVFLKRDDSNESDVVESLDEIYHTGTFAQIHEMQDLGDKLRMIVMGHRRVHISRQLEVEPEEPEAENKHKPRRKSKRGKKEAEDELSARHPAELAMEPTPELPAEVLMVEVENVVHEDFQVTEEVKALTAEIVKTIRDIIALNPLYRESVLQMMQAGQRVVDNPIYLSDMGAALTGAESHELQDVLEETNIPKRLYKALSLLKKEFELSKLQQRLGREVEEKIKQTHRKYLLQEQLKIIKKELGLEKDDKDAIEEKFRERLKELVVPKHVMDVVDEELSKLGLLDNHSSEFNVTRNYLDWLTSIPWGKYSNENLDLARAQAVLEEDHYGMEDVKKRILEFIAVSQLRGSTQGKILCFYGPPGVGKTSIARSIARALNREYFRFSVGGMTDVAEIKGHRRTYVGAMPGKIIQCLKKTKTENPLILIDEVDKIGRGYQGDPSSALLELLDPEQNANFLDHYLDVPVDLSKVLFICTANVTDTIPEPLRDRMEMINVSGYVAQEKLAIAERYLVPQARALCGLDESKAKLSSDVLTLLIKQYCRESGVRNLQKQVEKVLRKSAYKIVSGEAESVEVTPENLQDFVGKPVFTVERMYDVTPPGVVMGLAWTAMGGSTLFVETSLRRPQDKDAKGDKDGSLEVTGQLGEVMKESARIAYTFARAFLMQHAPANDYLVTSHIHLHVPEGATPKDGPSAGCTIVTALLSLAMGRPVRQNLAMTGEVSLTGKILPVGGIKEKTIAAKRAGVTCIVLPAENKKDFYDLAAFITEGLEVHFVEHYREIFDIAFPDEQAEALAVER

| SMILES | IC50 [nM] |
| --- | --- |
| COC[C@@H](NC(=O)c1cnccn1)C(=O)N[C@H](CCOc1ccc(Cl)cc1F)B(O)O [Compound 29, ((S)-3-(4-chloro-2-fluorophenoxy)-1-((R)-3-methoxy-2-(pyrazine-2-carboxamido)propanamido)propyl)boronic acid] | 500 to 5000 |
| COC[C@@H](NC(=O)c1cnccn1)C(=O)N[C@@H](CCCc1cccc(OC)c1)B(O)O [Compound 17, ((R)-1-((R)-3-methoxy-2-(pyrazine-2-carboxamido)propanamido)-4-(3-methoxyphenyl)butyl)boronic acid] | 50 to 500 |
| COC[C@H](C(=O)N[C@@H](CCCc1ccccc1)B(O)O)N1C(=O)c2ccccc2C1=O [Compound 16, ((R)-1-((R)-2-(1,3-dioxoisoindolin-2-yl)-3-methoxypropanamido)-4-phenylbutyl)boronic acid] | 50 to 500 |
| COC[C@@H](NC(=O)c1cnccn1)C(=O)N[C@@H](CCCc1ccc(O)cc1)B(O)O [Compound 40, ((R)-4-(4-hydroxyphenyl)-1-((R)-3-methoxy-2-(pyrazine-2-carboxamido)propanamido)butyl)boronic acid] | 500 to 5000 |
| COC[C@@H](NC(=O)c1cnccn1)C(=O)N[C@@H](CCCc1cccc(Cl)c1)B(O)O [Compound 15, ((R)-4-(3-chlorophenyl)-1-((R)-3-methoxy-2-(pyrazine-2-carboxamido)propanamido)butyl)boronic acid] | 50 to 500 |
| COC[C@@H](NC(=O)c1cnccn1)C(=O)N[C@@H](COCc1ccccc1)B(O)O [Compound 2, ((R)-2-(benzyloxy)-1-((R)-3-methoxy-2-(pyrazine-2-carboxamido)propanamido)ethyl)boronic acid] | 50 to 500 |
| COC[C@H](C(=O)N[C@@H](CCCc1ccccc1)B(O)O)N1C(=O)CCC1=O [Compound 19, ((R)-1-((R)-2-(2,5-dioxopyrrolidin-1-yl)-3-methoxypropanamido)-4-phenylbutyl)boronic acid] | 500 to 5000 |
| COC[C@@H](NC(=O)c1cnccn1)C(=O)N[C@@H](CCC(=O)c1ccccc1)B(O)O [Compound 53, ((R)-1-((R)-3-methoxy-2-(pyrazine-2-carboxamido)propanamido)-4-oxo-4-phenylbutyl)boronic acid] | 500 to 5000 |
| COC[C@@H](NC(=O)[C@H]1CCC(=O)N1)C(=O)N[C@@H](CCCc1ccccc1)B(O)O [Compound 8, ((R)-1-((R)-3-methoxy-2-((R)-5-oxopyrrolidine-2-carboxamido)propanamido)-4-phenylbutyl)boronic acid] | 50 to 500 |
| COC[C@@H](NC(=O)c1cnccn1)C(=O)N[C@@H](CC(C)C)B(O)O [Compound 38, ((R)-1-((R)-3-methoxy-2-(pyrazine-2-carboxamido)propanamido)-3-methylbutyl)boronic acid] | 50 to 500 |
| COC[C@@H](NC(=O)c1cnccn1)C(=O)N[C@@H](CC1CC1)B(O)O [Compound 18, ((R)-2-cyclopropyl-1-((R)-3-methoxy-2-(pyrazine-2-carboxamido)propanamido)ethyl)boronic acid] | 50 to 500 |
| O=C(N[C@H](CO)C(=O)N[C@@H](CCCc1ccc(O)cc1)B(O)O)c1cnccn1 [Compound 39, ((R)-1-((R)-3-hydroxy-2-(pyrazine-2-carboxamido)propanamido)-4-(4-hydroxyphenyl)butyl)boronic acid] | 500 to 5000 |
| CO[C@@H](C)[C@@H](NC(=O)c1cnccn1)C(=O)N[C@@H](CCOc1ccccc1)B(O)O [Compound 30, ((R)-1-((2R,3S)-3-methoxy-2-(pyrazine-2-carboxamido)butanamido)-3-phenoxypropyl)boronic acid] | 50 to 500 |
| COC[C@@H](NC(=O)[C@H]1CCCCO1)C(=O)N[C@@H](CCCc1ccccc1)B(O)O [Compound 41, ((R)-1-((R)-3-methoxy-2-((R)-tetrahydro-2H-pyran-2-carboxamido)propanamido)-4-phenylbutyl)boronic acid] | 50 to 500 |
| COC[C@@H](NC(=O)c1cnccn1)C(=O)N[C@@H](CCOc1ccc(Cl)cc1C)B(O)O [Compound 27, ((R)-3-(4-chloro-2-methylphenoxy)-1-((R)-3-methoxy-2-(pyrazine-2-carboxamido)propanamido)propyl)boronic acid] | 50 to 500 |
| COC[C@@H](NC(=O)c1cnccn1)C(=O)N[C@H](CCOc1ccc(Cl)c(F)c1)B(O)O [Compound 26, ((S)-3-(4-chloro-3-fluorophenoxy)-1-((R)-3-methoxy-2-(pyrazine-2-carboxamido)propanamido)propyl)boronic acid] | 500 to 5000 |
